Test results from US10173983B2, “Fungicidal pyridylamidines” (Syngenta Participations AG, priority 2014, dated 2019).

Columns and labels:
Type in all cases: in vivo
[1] = system: Puccinia recondita f. sp. tritici; assay: Puccinia recondita f. sp. tritici / wheat / leaf disc preventative (brown rust); conditions: foliar, 168 h, wheat leaf segments cv. Kanzler, inoculated 1 day after application, assessed 7-9 days after application, compared to untreated, read-out: disease control
Method: Puccinia recondita f. sp. tritici/Wheat/Leaf Disc Preventative (Brown Rust) Wheat leaf segments cv. Kanzler were placed on agar in multiwell plates (24-well format) and sprayed with the formulated test compound diluted in water. The leaf disks were inoculated with a spore suspension of the fungus 1 day after application. The inoculated leaf segments were incubated at 19° C. and 75% rh under a light regime of 12 h light/12 h darkness in a climate cabinet and the activity of a compound was assessed as percent disease control compared to untreated when an appropriate level of disease damage appears in untreated check leaf segments (7-9 days after application). The following compounds gave at 200 ppm gave at least 80% disease control in this test when compared to untreated control leaf disks under the same conditions, which show extensive disease development: […]

[2] = system: Phakopsora pachyrhizi; assay: Phakopsora pachyrhizi on soybean, preventive treatment; conditions: 264 h, 1 day preventive, triazole tolerant soybean rust strain, evaluated 11 days after application, compared to untreated, read-out: disease control
Method: Phakopsora pachyrhizi on Soybean, Preventive Treatment
The compound activity was tested under 1 day preventive conditions. Soybean plants with a fully enfolded first trifoliate leaf were sprayed with a track sprayer and 50 l/ha spray volume with the test compounds, either solo or in tankmix as shown in the table below. 1 day after application leaf discs were cut from the first trifoliate leaf and placed in multiwell plates on water-agar. 5 leaf discs per treatment where infested with spores of a triazole tolerant soybean rust strain. The multiwell plates where sealed and placed in an incubator 48 h in darkness and 12 h light/dark cycle afterwards. Rust infestation on leaf discs was evaluated visually 11 days after application and average activity calculated in relation to disease severity on untreated check leaf discs.
The following compounds gave at 200 ppm gave at least 80% disease control in this test when compared to untreated control leaf disks under the same conditions, which show extensive disease development: […]

[3] = system: Puccinia recondita f. sp. tritici; assay: Puccinia recondita f. sp. tritici / wheat / leaf disc curative (brown rust); conditions: foliar, wheat leaf segments cv. Kanzler, compound applied 1 day after inoculation, assessed 6-8 days after application, compared to untreated, read-out: disease control
Method: Puccinia recondita f. sp. tritici/Wheat/Leaf Disc Curative (Brown Rust) Wheat leaf segments cv. Kanzler are placed on agar in multiwell plates (24-well format). The leaf segments are inoculated with a spore suspension of the fungus. Plates were stored in darkness at 19° C. and 75% rh. The formulated test compound diluted in water was applied 1 day after inoculation. The leaf segments were incubated at 19° C. and 75% rh under a light regime of 12 h light/12 h darkness in a climate cabinet and the activity of a compound was assessed as percent disease control compared to untreated when an appropriate level of disease damage appears in untreated check leaf segments (6-8 days after application). The following compounds gave at 200 ppm gave at least 80% disease control in this test when compared to untreated control leaf disks under the same conditions, which show extensive disease development: […]

[4] = system: Blumeria graminis f. Sp. tritici (Erysiphe graminis f. sp. tritici); assay: Blumeria graminis f. sp. tritici / wheat / leaf disc preventative (powdery mildew on wheat); conditions: foliar, wheat leaf segments cv. Kanzler, inoculated 1 day after application, assessed 6-8 days after application, compared to untreated, read-out: disease control
Method: Blumeria graminis f. Sp. tritici (Erysiphe graminis f. sp. tritici)/Wheat/Leaf Disc Preventative (Powdery Mildew on Wheat) Wheat leaf segments cv. Kanzler were placed on agar in a multiwell plate (24-well format) and sprayed with the formulated test compound diluted in water. The leaf disks were inoculated by shaking powdery mildew infected plants above the test plates 1 day after application. The inoculated leaf disks were incubated at 20° C. and 60% rh under a light regime of 24 h darkness followed by 12 h light/12 h darkness in a climate chamber and the activity of a compound was assessed as percent disease control compared to untreated when an appropriate level of disease damage appears on untreated check leaf segments (6-8 days after application). The following compounds gave at 200 ppm give at least 80% disease control in this test when compared to untreated control leaf disks under the same conditions, which show extensive disease development: […]

Measured: pest or weed control at 200 ppm

CCCOCC(C)Oc1nc(C)c(/N=C/N(C)CC)cc1Br (stereo in doubt) [Q.002, N′-[5-bromo-2-methyl-6-[(1S)-1-methyl-2-propoxy-ethoxy]-3-pyridyl]-N-ethyl-N-methyl-formamidine]
≥ 80%: all assays above

CCCOCC(C)Oc1nc(C)c(/N=C/N(C)CC)cc1C#N (centres unmarked) [Q.007, N′-[5-cyano-2-methyl-6-(1-methyl-2-propoxy-ethoxy)-3-pyridyl]-N-ethyl-N-methyl-formamidine]
≥ 80%: all assays above

CCCOCC(C)Oc1nc(C)c(N=CN(C)CC)cc1C(F)F (centres unmarked) [Q.009, N′-[5-(difluoromethyl)-2-methyl-6-(1-methyl-2-propoxy-ethoxy)-3-pyridyl]-N-ethyl-N-methyl-formamidine]
≥ 80%: all assays above

CCCOCC(C)Oc1nc(C)c(N=CN(C)CC)cc1OC(F)F (centres unmarked) [Q.010, N′-[5-(difluoromethoxy)-2-methyl-6-(1-methyl-2-propoxy-ethoxy)-3-pyridyl]-N-ethyl-N-methyl-formamidine]
≥ 80%: all assays above

CCCOCC(C)Oc1nc(C)c(N=CN(C)CC)cc1C (centres unmarked) [Q.011, N′-[2,5-dimethyl-6-(1-methyl-2-propoxy-ethoxy)-3-pyridyl]-N-ethyl-N-methyl-formamidine]
≥ 80%: all assays above

CCCOCC(C)Oc1ccc(N=CN(C)CC)c(C)n1 (centres unmarked) [Q.012, N-ethyl-N-methyl-N′-[2-methyl-6-(1-methyl-2-propoxy-ethoxy)-3-pyridyl]formamidine]
≥ 80%: [2] | [3]

CCCOCC(C)Oc1nc(C)c(/N=C/N(C)CC)cc1Br (centres unmarked) [Q.013, N′-[5-bromo-2-methyl-6-(1-methyl-2-propoxy-ethoxy)-3-pyridyl]-N-ethyl-N-methyl-formamidine]
≥ 80%: all assays above

C=CCOCC(C)Oc1nc(C)c(N=CN(C)CC)cc1Cl (centres unmarked) [Q.014, N′-[6-(2-allyloxy-1-methyl-ethoxy)-5-chloro-2-methyl-3-pyridyl]-N-ethyl-N-methyl-formamidine]
≥ 80%: all assays above

CCCOCC(C)Oc1nc(C)c(/N=C/N(C)CC)cc1C(=O)OC (centres unmarked) [Q.019, Methyl 5-[(E)-[ethyl(methyl)amino]methylene-amino]-6-methyl-2-(1-methyl-2-propoxy-ethoxy)pyridine-3-carboxylate]
≥ 80%: [2] | [3]

CCN(C)C=Nc1cc(C#N)c(OC(C)COc2ccc(Cl)cc2)nc1C (centres unmarked) [Q.021, N′-[6-[2-(4-chlorophenoxy)-1-methyl-ethoxy]-5-cyano-2-methyl-3-pyridyl]-N-ethyl-N-methyl-formamidine]
≥ 80%: [1] | [3] | [4]

CCN(C)C=Nc1cc(C#N)c(OC(C)COc2ccccc2)nc1C (centres unmarked) [Q.022, N′-[5-cyano-2-methyl-6-(1-methyl-2-phenoxy-ethoxy)-3-pyridyl]-N-ethyl-N-methyl-formamidine]
≥ 80%: [1] | [3] | [4]

CCN(C)C=Nc1cc(Br)c(OC(C)COc2cccc(C(F)(F)F)c2)nc1C (centres unmarked) [Q.027, N′-[5-bromo-2-methyl-6-[1-methyl-2-[3-(trifluoromethyl)phenoxy]ethoxy]-3-pyridyl]-N-ethyl-N-methyl-formamidine]
≥ 80%: [2] | [3] | [4]
